According to patent US5677326A, “Indoline compound and 5-HT3 receptor antagonist containing the same as active ingredient” (Tokyo Tanabe Company Limited, priority 1993, dated 1997):

Tests used:
[1] = molecular target: T1, Intestinal 5-HT3 receptor (Cavia porcellus, UniProt O70212); assay: Intestinal 5-HT3 receptor antagonism (isolated distal colon, 2-methylserotonin-induced contraction); type: cell-based, Hartley guinea pigs; settings: M (molar concentration of antagonist), isolated distal colon, 2-methylserotonin contraction
T1 sequence (O70212 24-490 limits assumed): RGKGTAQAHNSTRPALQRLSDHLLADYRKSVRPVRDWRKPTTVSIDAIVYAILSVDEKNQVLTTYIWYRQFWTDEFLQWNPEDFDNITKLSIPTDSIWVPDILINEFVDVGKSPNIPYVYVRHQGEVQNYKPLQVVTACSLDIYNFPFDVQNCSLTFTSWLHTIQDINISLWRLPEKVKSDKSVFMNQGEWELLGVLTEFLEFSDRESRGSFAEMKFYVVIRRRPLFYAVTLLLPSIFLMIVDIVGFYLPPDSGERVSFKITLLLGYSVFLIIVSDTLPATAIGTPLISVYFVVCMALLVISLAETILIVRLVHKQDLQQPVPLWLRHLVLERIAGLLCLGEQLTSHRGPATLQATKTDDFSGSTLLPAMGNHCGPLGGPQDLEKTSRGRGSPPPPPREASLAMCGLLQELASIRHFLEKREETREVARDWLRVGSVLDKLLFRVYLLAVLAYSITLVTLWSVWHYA
Description: The test was conducted following the method of Miyata, et al. (The Journal of Pharmacology and Experimental Therapeutics Vol.259, No:1, 15 (1991)).
Male Hartley guinea pigs with a body weight of 300-400 g were bled to death, the distal colon (3-10 cm from the anus) was isolated and suspended in a Magnus tube filled with Krebs solution aerated with a mixed gas (95% O2, 5% CO2), and subjected to a tensile load of 1 g. After constant contraction by cumulative addition of 2-methylserotonin (10^-6 -10^-4 M) was obtained, the test agent was added and the pA2 value of the test agent was calculated based on its inhibiting action on the initial value.
The value (pA2 value) is defined as the negative logarithm (-logM) of the molar concentration (M) of the antagonist required to reduce the effect of serotonin at a concentration of 2 times the 2-methylserotonin concentration (EC50) necessary to induce half of the maximum contraction reaction, to an effect induced by an EC50 of serotonin.

[2] = test system: 5-HT3 receptors in the upper intestine; assay: Antagonism against 5-HT-induced intestinal secretion (jejunal loop); type: in vivo, wister rats; settings: caudal vein, 15 min before serotonin
Description: Antagonism against 5-HT-induced intestinal secretion:
Male wister rats (8-11 weeks old) were anesthetized with urethane, and the abdomen was opened a polyethylene catheter was placed in the jejunum 5 cm distal to the duodenojejunal flexure and fixed by ligation. The second ligation was made at a distal point of 20 cm to create a jejunal loop. Two ml of physiological saline was injected into this loop and initiated continuous injection of physiological saline (0.1 ml/min) or 5-HT (3 μg/0.1 ml/kg/min, serotonin treated group) into the mesenteric artery through the mesenteric artery gastric branch, and after 30 minutes the jejunal loop was isolated, the residual fluid amount was measured, and the net fluid transfer per gram of tissue weight was calculated. The net fluid transfer was expressed as the fluid amount (weight) change in 30 minutes per jejunal tissue weight (g/30 min/g). A "+" was assigned when the fluid amount increased compared with 2 ml of physiological saline injected into the loop, and "-" when it decreased

[3] = test system: restrained stress-induced diarrhea; assay: Inhibiting effect on restrained stress-induced diarrhea (oral administration); type: in vivo, Wistar rats; settings: 1 hour before stress
Description: Inhibiting effect on restrained stress-induced diarrhea (oral administration): This test was conducted following the method of Miyata, et al. […] Nine-week-old male Wistar rats fasted overnight were placed in a stress cage and their feces produced in 5 hours were observed. Of 15 rats, 14 developed diarrhea. The inhibiting effect on diarrhea was measured by oral administration of the test compounds one hour prior to placement in the stress cage.

[4] = test system: restraint stress-induced diarrhea; assay: Inhibiting effect on restraint stress-induced diarrhea (intraabdominal administration); type: in vivo, Wistar rats; settings: 30 μg/kg, 30 min before stress
Description: Inhibiting effect on restraint stress-induced diarrhea (intraabdominal administration): This test was conducted in the same manner as Test 3. Nine- to ten-week-oldmale Wistar rats fasted overnight were placed in a stress case and their feces produced in 5 hours were observed. Of 15 rats, 14 developed diarrhea. The inhibiting effect on diarrhea was measured by intraabdominal administration of a test compound 30 minutes prior to placement in the stress cage.

[5] = test system: duodenal extension reflex; assay: Inhibiting effect on duodenal extension reflex; type: in vivo, Wistar rats; settings: intravenous
Excerpt: Inhibiting effect on duodenal extension reflex: Unfasted male Wistar rats with a body weight of 300-390 g were opened at the abdomen under urethane anesthesia, and ligated at 2 locations, the gastric pyloric region and 3-4 cm directly under it, to create a duodenal loop. […] The beaker was raised at once to create a internal loop pressure of 75 cm H2, and the depressor reflex and effect of the test agent administration were observed. […] The test agent was then administrated intravenously, and at 5, 15 and 25 minutes after administration an extension stimulus was applied, the depressor reflex was observed, and the differences were expressed as percentages with respect to the initial value, to give the inhibition rates.

[6] = molecular target: T2, 5-HT3 receptors in the heart (Rattus norvegicus, UniProt P35563); assay: Antagonism against Von Bezold-Jarisch reflex (BJ reflex); type: in vivo, SD rats; settings: iv, 5 min before serotonin 30 μg/kg, read-out: ID50 (the source's name)
T2 construct: from tissue; host or cells: living anesthetized male SD rats (in vivo)
T2 sequence (P35563 24-483): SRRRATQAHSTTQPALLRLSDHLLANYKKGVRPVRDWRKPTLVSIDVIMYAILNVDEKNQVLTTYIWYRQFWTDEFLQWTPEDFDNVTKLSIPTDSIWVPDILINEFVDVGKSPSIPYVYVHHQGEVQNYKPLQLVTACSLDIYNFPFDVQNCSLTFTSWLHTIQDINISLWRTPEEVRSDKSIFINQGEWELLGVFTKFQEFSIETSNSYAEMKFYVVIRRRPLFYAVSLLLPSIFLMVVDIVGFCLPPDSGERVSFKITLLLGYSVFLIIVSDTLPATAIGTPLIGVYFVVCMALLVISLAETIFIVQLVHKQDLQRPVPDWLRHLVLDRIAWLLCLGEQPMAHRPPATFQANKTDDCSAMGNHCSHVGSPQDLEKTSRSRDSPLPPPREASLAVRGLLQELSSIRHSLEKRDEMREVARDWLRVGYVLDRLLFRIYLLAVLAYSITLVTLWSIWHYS
Description: Antagonism against Von Bezold-Jarisch reflex (BJ reflex):
The pulse was determined by measuring the electrocardiogram R waves (secondary induction) with an instantaneous pulse rate meter.

[7] = test system: cisplatin-induced vomiting; assay: Inhibiting effect on cisplatin-induced vomiting; type: in vivo, ferrets; settings: oral, 1 hour before cisplatin; for No. of retching / No. of vomiting animals/No. of animals used / No. of vomitings: 6 hours
Excerpt: Inhibiting effect on cisplatin-induced vomiting:
Vomiting was induced in ferrets by administration of cisplatin. The inhibiting effect on this vomiting was observed. […] The test agents were orally administered one hour prior to cisplatin administration. […]

[8] = test system: gastric emptying; assay: Accelerating effect on gastric emptying (cisplatin-reduced); type: in vivo, SD rats; settings: oral, 30 min before cisplatin 10 mg/kg
Description: Accelerating effect on gastric emptying
Seven-week-old male SD rats which had been fasted for 24 hours were used. The effect on gastric emptying was studied in rats with reduced gastric emptying due to cisplatin. The rats were intragastrically administered the test feed (1.5% aqueous CMC solution containing 50 mg/100 ml phenol red) at 1.5 ml/rat, and after 15 minutes the stomachs were dissected, the residual amount of phenol red in the stomach was measured, in order to determine the gastric emptying in normal animals. A cisplatin-induced reduction in gastric emptying was measured by intraabdominal administration of cisplatin (10 mg/kg) 30 minutes prior to supplying the test feed. The test compound was also administered orally 30 minutes prior to the cisplatin administration to study the accelerating effect of the test compound on gastric emptying.

[9] = test system: stress-related diarrhea; settings: animal models; J. Pharmacol. Exp. Ther. 261, 297 (1992); cited from earlier work
[10] = test system: vomiting; settings: The Japanese Journal of Pharmacology 57, 387-395 (1991); cited from earlier work

Cl.Cn1cc(C(=O)[C@@H]2CCc3nc[nH]c3C2)c2ccccc21 [YM-060, (R)-(-)-5-[(1-methylindol-3-yl)carbonyl]-4,5,6,7-tetrahydrobenzimidazole hydrochloride, reference compound]
Kb [1]: 4.5 nM | net fluid transfer in jejunal loop ([2]; 1.0 μg/kg): -0.49 ± 0.06 g/30 min/g tissue weight | net fluid transfer in jejunal loop ([2]; 10 μg/kg): -0.74 ± 0.09 g/30 min/g tissue weight | Inhibition rate ([3]; 30 μg/kg): 60% | No. of animals with diarrhea/No. of animals used ([3]; 30 μg/kg): 4/10 | Inhibition rate ([3]; 100 μg/kg): 75% | No. of animals with diarrhea/No. of animals used ([3]; 100 μg/kg): 2/8 | Inhibition rate [4]: 50% | No. of animals with diarrhea/No. of animals used [4]: 7/14 | Inhibition rate, 5-min value ([5]; 1 μg/kg): -27.9% | Inhibition rate, 15-min value ([5]; 1 μg/kg): -30.8% | Inhibition rate, 25-min value ([5]; 1 μg/kg): -14.8% | Inhibition rate, 5-min value ([5]; 10 μg/kg): 16.3% | Inhibition rate, 15-min value ([5]; 10 μg/kg): 6.3% | Inhibition rate, 25-min value ([5]; 10 μg/kg): 7.9% | ED50 [6]: 8.6e-05 µmol/kg | Latency* (time to initial retching) ([7]; 0.3 μg): 127.0 min | Latency** (time to initial vomiting) ([7]; 0.3 μg): 134.0 min | No. of retching ([7]; 0.3 μg): 126.0 | No. of vomiting animals/No. of animals used ([7]; 0.3 μg): 2/2 | No. of vomitings ([7]; 0.3 μg): 6.5 | Latency* (time to initial retching) ([7]; 1.0 μg): > 272.2 min | Latency** (time to initial vomiting) ([7]; 1.0 μg): > 303.0 min | No. of retching ([7]; 1.0 μg): 41.6 | No. of vomiting animals/No. of animals used ([7]; 1.0 μg): 3/5 | No. of vomitings ([7]; 1.0 μg): 1.2 | Gastric evacuation ([8]; 0.3 μg/kg): 51.8% | Gastric evacuation ([8]; 1.0 μg/kg): 74.2% | suppression of stress-related diarrhea (in words) [9]: suppress stress-related diarrhea in animal models, with the effect of YM-060 being the strongest | antiemetic effect (in words) [10]: powerful antiemetic effect
